Measured values published in PMC7482817 (Theranostics, 2020).

Legend:
E. coli B2 (mcr-1) [1] = assay: Broth microdilution MIC and checkerboard assay; type: cell-based, Escherichia coli; details: for MIC of antibiotic in the absence of melatonin: antibiotic alone, MHB; for Potentiation (fold): degree of colistin potentiation in the presence of sub-MIC of melatonin and its analogues: colistin plus sub-MIC of the analogue
E. coli B2 (mcr-1) [2] = assay: Time-dependent killing; type: cell-based, Escherichia coli; details: melatonin 1 mg/mL or colistin 2 μg/mL alone, 24 h
Method: Overnight E. coli B2 were diluted 1/1,000 in MHB, and incubated for 4 h (exponential phase) or 8 h (stationary phase) at 37 °C. […] At intervals, 100 μL aliquots were removed, centrifuged and resuspended in 100 μL sterile PBS. Subsequently, ten-fold serially diluted suspensions were plated on MHA plates and incubated overnight at 37 °C. Bacterial colonies were counted and the primary CFUs/mL was calculated.

E. coli B2 [3] = assay: Intracellular SOD activity; details: colistin with or without melatonin 500 μg/mL, or melatonin alone
E. coli B2 [4] = assay: H2O2 production (Hydrogen Peroxide Assay Kit); type: cell-based, Escherichia coli; details: melatonin in single or combination treatment with colistin; 1 h
Method: (§1) 2′,7′-dichlorodihydrofluorescein diacetate (DCFH-DA, 10 μM) was applied to monitor levels of ROS in E. coli B2 [38], following the manufacturer's instruction (Beyotime). Fluorescence intensity was measured with the excitation wavelength of 488 nm and emission wavelength of 525 nm. […] After incubation for one hour, the absorbance of lysis buffer at 570 nm was measured.

CHO cells = assay: Cytotoxicity, WST-1 assay; type: cell-based, Chinese Hamster; details: colistin 0 to 128 μg/mL with melatonin 0 to 1,000 μg/mL, 24 h
Method: (§3) Cytotoxicity on CHO and HEK293T cells was determined using the water-soluble tetrazolium salt-1 (WST-1, Roche, Switzerland) assay [35].

HEK293T cells = assay: Cytotoxicity, WST-1 assay; type: cell-based, Human; details: colistin 0 to 128 μg/mL with melatonin 0 to 1,000 μg/mL, 24 h
Method: as §3

E. coli B2 (mcr-1) [5] = assay: Mouse peritonitis-sepsis infection model; type: in vivo, BALB/c mice; details: single i.p. dose 1 h post-infection: colistin 10 mg/kg, melatonin 50 mg/kg, or combinations 5 + 50, 10 + 20, 10 + 50 mg/kg; 7 days; n = 8 or 9
Method: 6-8-week-old female BALB/c mice were obtained from Comparative Medicine Centre of Yangzhou University (Jiangsu, China). Mice were adapted for one week prior to infection. Mouse studies were performed in accordance with the relevant guidelines and regulations (ID: SCXK-2017-0007). The laboratory animal usage license number is SCXK-2017-0044, certified by Jiangsu Association for Science and Technology.
Female BALB/c mice (n = 8 or 9 per group) were intraperitoneally infected with a dose of 3.0 × 10^8 CFUs E. coli B2 suspension. […] Survival rates of mice were recorded for 7 days.

E. coli = assay: Colistin intracellular accumulation by LC-MS/MS; type: cell-based, Escherichia coli; details: co-incubation with varying doses of melatonin
[6] = tested on: mcr-1 expression in E. coli B2; type: cell-based, Escherichia coli; details: melatonin with or without colistin
[7] = tested on: thirteen clinical colistin-resistant E. coli from elk
E. coli B2 [8] = assay: Total ROS (DCFH-DA); type: cell-based, Escherichia coli; details: 1 h, colistin with or without melatonin 500 μg/mL, or melatonin alone
Method: (§2) Pretreatments of biochemical assays were performed using similar protocols as follows. Overnight E. coli B2 were washed, suspended in 5 mM HEPES (pH 7.0, plus 5 mM glucose) with an OD600 of 0.5, and incubated with fluorescent dyes for 30 min. […] After incubation at 37 °C for 1 hour, fluorescence intensity or absorbance or luminescence was measured by an Infinite M200 Microplate reader (Tecan).
as §1

E. coli B2 (mcr-1) [9] = assay: Membrane depolarization (DiSC3(5)); type: cell-based, Escherichia coli; details: melatonin 0 to 1,000 μg/mL alone, or 500 μg/mL added to colistin; 1 h
Method: as §2
3, 3-dipropylthiadicarbocyanine iodide (DiSC3(5), 0.5 μM) was applied to determine the membrane potential. Dissipated membrane potential of E. coli B2 was measured with the excitation wavelength of 622 nm and emission wavelength of 670 nm.

resistant bacteria = assay: Potentiation of colistin, summary over resistant strains; type: cell-based; details: in resistant bacteria
E. coli ATCC 25922 = assay: Broth microdilution MIC and checkerboard assay; type: cell-based, Escherichia coli
[10] = tested on: K. pneumoniae D120 (mcr-8); assay: Broth microdilution MIC and checkerboard assay; type: cell-based
E. coli C3 = assay: Broth microdilution MIC and checkerboard assay; type: cell-based, Escherichia coli
E. coli MG1655 = assay: Broth microdilution MIC and checkerboard assay; type: cell-based, Escherichia coli
E. coli CP131 (mcr-3) = assay: Broth microdilution MIC and checkerboard assay; type: cell-based, Escherichia coli
E. coli G92 (mcr-1) = assay: Broth microdilution MIC and checkerboard assay; type: cell-based, Escherichia coli
E. coli MG1655 (ΔkatE) = assay: Broth microdilution MIC and checkerboard assay
S. enterica ATCC 13076 = assay: Broth microdilution MIC and checkerboard assay; type: cell-based
E. coli G6 = assay: Broth microdilution MIC and checkerboard assay; type: cell-based, Escherichia coli
[11] = antibiotic plus sub-MIC melatonin
[12] = antibiotic with melatonin, checkerboard, two biological replicates
[13] = melatonin or analogue with colistin, checkerboard 8 × 8, 18 h, means of two biological replicates, synergy FIC index ≤ 0.5

## CC1(C)S[C@@H]2[C@H](NC(=O)[C@H](N)c3ccccc3)C(=O)N2[C@H]1C(=O)O [Ampicillin]
E. coli B2 (mcr-1) [1]; 18 h, 37 °C
  MIC of antibiotic in the absence of melatonin: 128 µg/mL
E. coli B2 (mcr-1) [1]; [11]
  MIC of antibiotic in the presence of sub-MIC of melatonin: 128 µg/mL
E. coli B2 (mcr-1) [1]; [12]
  FIC index: 2

## NCCc1c[nH]c2ccc(O)cc12 [Analogue 1, Serotonin]
E. coli B2 (mcr-1) [1]
  Potentiation (fold): degree of colistin potentiation in the presence of sub-MIC of melatonin and its analogues: 8 fold
E. coli B2 (mcr-1) [1]; [13]
  FIC index: 0.188

## NCCc1c[nH]c2ccccc12 [Analogue 2, Tryptamine]
E. coli B2 (mcr-1) [1]
  Potentiation (fold): degree of colistin potentiation in the presence of sub-MIC of melatonin and its analogues: 32 fold
E. coli B2 (mcr-1) [1]; [13]
  FIC index: 0.156

## N[C@@H](Cc1c[nH]c2ccc(O)cc12)C(=O)O [Analogue 3, 5-Hydroxy-L-tryptophan]
E. coli B2 (mcr-1) [1]
  Potentiation (fold): degree of colistin potentiation in the presence of sub-MIC of melatonin and its analogues: 2 fold
E. coli B2 (mcr-1) [1]; [13]
  FIC index: 1

## N[C@@H](Cc1c[nH]c2ccccc12)C(=O)O [Analogue 4, L-tryptophan]
E. coli B2 (mcr-1) [1]
  Potentiation (fold): degree of colistin potentiation in the presence of sub-MIC of melatonin and its analogues: 1 fold
E. coli B2 (mcr-1) [1]; [13]
  FIC index: 2

## CC(=O)NCCc1c[nH]c2ccc(O)cc12 [Analogue 5, N-acetyl-5-hydroxytryptamine]
E. coli B2 (mcr-1) [1]
  Potentiation (fold): degree of colistin potentiation in the presence of sub-MIC of melatonin and its analogues: 32 fold
E. coli B2 (mcr-1) [1]; [13]
  FIC index: 0.094

## COc1ccc2[nH]cc(CCN)c2c1 [Analogue 6, 5-Methoxytryptamine]
E. coli B2 (mcr-1) [1]
  Potentiation (fold): degree of colistin potentiation in the presence of sub-MIC of melatonin and its analogues: 32 fold
E. coli B2 (mcr-1) [1]; [13]
  FIC index: 0.156

## c1ccc2[nH]ccc2c1 [Analogue 7, Indole]
E. coli B2 (mcr-1) [1]
  Potentiation (fold): degree of colistin potentiation in the presence of sub-MIC of melatonin and its analogues: 8 fold

## NCCc1c[nH]cn1 [Analogue 8, Histamine]
E. coli B2 (mcr-1) [1]; [13]
  FIC index: >4

## C[C@H]1c2cccc(O)c2C(=O)C2=C(O)[C@]3(O)C(=O)C(C(N)=O)=C(O)[C@@H](N(C)C)[C@@H]3[C@@H](O)[C@@H]21 [Doxycycline]
E. coli B2 (mcr-1) [1]; 18 h, 37 °C
  MIC of antibiotic in the absence of melatonin: 32 µg/mL
E. coli B2 (mcr-1) [1]; [11]
  MIC of antibiotic in the presence of sub-MIC of melatonin: 4 µg/mL
  Potentiation (fold): degree of antibiotics potentiation in the presence of sub-MIC of melatonin: 8 fold
E. coli B2 (mcr-1) [1]; [12]
  FIC index: 0.250

## COc1ccc2[nH]cc(CCNC(C)=O)c2c1 [Melatonin, N-acetyl-5-methoxytryptamine]
E. coli B2 (mcr-1) [2]
  killing of exponentially growing or stationary E. coli B2 by monotreatment: neither melatonin nor colistin monotreatment killed
E. coli B2 [3]
  SOD activity: had no direct effect on the total ROS level and SOD activity
E. coli B2 [4]
  production of H2O2: significantly promoted production of H2O2 in a dose-dependent manner
CHO cells
  effect of melatonin on cytotoxicity of colistin: slightly reduced the cytotoxicity of colistin
HEK293T cells
  effect of melatonin on cytotoxicity of colistin: slightly reduced the cytotoxicity of colistin
E. coli B2 (mcr-1) [5]
  survival of mice after lethal infection: did not prevent a lethal infection
E. coli
  intracellular colistin accumulation: enhanced colistin in cells in a dose-dependent manner
[6]
  mcr-1 expression: down-regulated in the presence of melatonin
[7]
  synergistic activity with colistin: synergistic activity was also evidenced
E. coli B2 [8]
  total ROS level: had no direct effect on the total ROS level and SOD activity
E. coli B2 (mcr-1) [9]
  cytoplasmic membrane potential (DiSC3(5)): caused dissipation of the cytoplasmic membrane potential
Resistant bacteria
  potentiation with colistin: 8 to 32 fold

## C[C@@H](O)[C@H]1C(=O)N2C(C(=O)O)=C(S[C@@H]3CN[C@H](C(=O)N(C)C)C3)[C@H](C)[C@H]12 [Meropenem]
E. coli B2 (mcr-1) [1]; 18 h, 37 °C
  MIC of antibiotic in the absence of melatonin: 32 µg/mL
E. coli B2 (mcr-1) [1]; [11]
  MIC of antibiotic in the presence of sub-MIC of melatonin: 32 µg/mL
E. coli B2 (mcr-1) [1]; [12]
  FIC index: 2

## CO[C@H]1/C=C/O[C@@]2(C)Oc3c(C)c(O)c4c(O)c(c(/C=N/N5CCN(C)CC5)c(O)c4c3C2=O)NC(=O)/C(C)=C\C=C\[C@H](C)[C@H](O)[C@@H](C)[C@@H](O)[C@@H](C)[C@H](OC(C)=O)[C@@H]1C [Rifampicin]
E. coli B2 (mcr-1) [1]; 18 h, 37 °C
  MIC of antibiotic in the absence of melatonin: 128 µg/mL
E. coli B2 (mcr-1) [1]; [11]
  MIC of antibiotic in the presence of sub-MIC of melatonin: 128 µg/mL
E. coli B2 (mcr-1) [1]; [12]
  FIC index: 2

## Colistin
E. coli ATCC 25922; E. coli ATCC 25922
  MIC of colistin in the presence of sub-MIC of melatonin: 0.125 µg/mL
E. coli ATCC 25922; E. coli ATCC 25922, MCR-negative
  MIC of colistin in the absence of melatonin: 0.5 µg/mL
[10]
  MIC of colistin in the presence of sub-MIC of melatonin: 0.5 µg/mL
[10]; MCR-positive
  MIC of colistin in the absence of melatonin: 4 µg/mL
E. coli B2 (mcr-1) [2]
  killing of exponentially growing or stationary E. coli B2 by monotreatment: neither melatonin nor colistin monotreatment killed
E. coli C3; E. coli C3
  MIC of colistin in the presence of sub-MIC of melatonin: 0.0312 µg/mL
E. coli C3; E. coli C3, MCR-negative
  MIC of colistin in the absence of melatonin: 0.125 µg/mL
E. coli B2 (mcr-1) [1]; 18 h, 37 °C
  MIC of antibiotic in the absence of melatonin: 8 µg/mL
E. coli B2 (mcr-1) [1]; [11]
  MIC of antibiotic in the presence of sub-MIC of melatonin: 0.25 µg/mL
E. coli B2 (mcr-1) [1]; colistin alone, broth micro-dilution in MHB, 18 h, 37 °C
  MIC^a of colistin in the absence of melatonin and its analogues: 8 μg/mL
E. coli MG1655; E. coli MG1655
  MIC of colistin in the presence of sub-MIC of melatonin: 0.0156 µg/mL
E. coli MG1655; E. coli MG1655, MCR-negative
  MIC of colistin in the absence of melatonin: 0.0625 µg/mL
E. coli B2 (mcr-1) [5]
  survival of mice after lethal infection: did not prevent a lethal infection
E. coli CP131 (mcr-3)
  MIC of colistin in the presence of sub-MIC of melatonin: 0.5 µg/mL
E. coli CP131 (mcr-3); MCR-positive
  MIC of colistin in the absence of melatonin: 4 µg/mL
E. coli G92 (mcr-1)
  MIC of colistin in the presence of sub-MIC of melatonin: 0.5 µg/mL
E. coli G92 (mcr-1); MCR-positive
  MIC of colistin in the absence of melatonin: 4 µg/mL
E. coli MG1655 (ΔkatE)
  MIC of colistin in the presence of sub-MIC of melatonin: 0.0078 µg/mL
S. enterica ATCC 13076; S. enterica ATCC 13076
  MIC of colistin in the presence of sub-MIC of melatonin: 0.0156 µg/mL
S. enterica ATCC 13076; S. enterica ATCC 13076, MCR-negative
  MIC of colistin in the absence of melatonin: 0.125 µg/mL
E. coli G6; E. coli G6
  MIC of colistin in the presence of sub-MIC of melatonin: 0.0156 µg/mL
E. coli G6; E. coli G6, MCR-negative
  MIC of colistin in the absence of melatonin: 0.125 µg/mL
